Reference: ChEMBL document CHEMBL3045499, “Chem-bioinformatics and in vitro approaches for candidate optimization: a case study of NSC745689 as a promising antitumor agent” (Med Chem Res, 2013)
Active and inactive are the calls of the source. The calls are words filed in the database; no cut-off is given here.

Key:
MDA-MB-468 = experiment: Growth inhibition of Homo sapiens (human) MDA-MB-468 cells after 48 hr by SRB assay; assay type: functional; settings: MDA-MB-468, 48 h
EKVX = experiment: Growth inhibition of Homo sapiens (human) EKVX cells after 48 hr by SRB assay; assay type: functional
NCI-H226 = experiment: Growth inhibition of Homo sapiens (human) NCI-H226 cells after 48 hr by SRB assay; assay type: functional; settings: NCI-H226, 48 h
HL-60(TB) = experiment: Growth inhibition of Homo sapiens (human) HL-60(TB) cells after 48 hr by SRB assay; assay type: functional; settings: HL-60, 48 h
SF-268 = experiment: Growth inhibition of Homo sapiens (human) SF268 cells after 48 hr by SRB assay; assay type: functional; settings: SF-268, 48 h
BT-549 = experiment: Growth inhibition of Homo sapiens (human) BT549 cells after 48 hr by SRB assay; assay type: functional; settings: BT-549, 48 h
HOP-62 = experiment: Growth inhibition of Homo sapiens (human) HOP62 cells after 48 hr by SRB assay; assay type: functional; settings: HOP-62, 48 h
T47D = experiment: Growth inhibition of Homo sapiens (human) T47D cells after 48 hr by SRB assay; assay type: functional
SNB-19 = experiment: Growth inhibition of Homo sapiens (human) SNB19 cells after 48 hr by SRB assay; assay type: functional; settings: SNB-19, 48 h
MCF7 = experiment: Growth inhibition of Homo sapiens (human) MCF7 cells after 48 hr by SRB assay; assay type: functional; settings: MCF7, 48 h
NCI-H23 = experiment: Growth inhibition of Homo sapiens (human) NCI-H23 cells after 48 hr by SRB assay; assay type: functional; settings: NCI-H23, 48 h
SF-295 = experiment: Growth inhibition of Homo sapiens (human) SF295 cells after 48 hr by SRB assay; assay type: functional; settings: SF-295, 48 h
Hs-578T = experiment: Growth inhibition of Homo sapiens (human) Hs 578T cells after 48 hr by SRB assay; assay type: functional
MDA-MB-231 = experiment: Growth inhibition of Homo sapiens (human) MDA-MB-231/ATCC cells after 48 hr by SRB assay; assay type: functional; settings: MDA-MB-231, 48 h
SF-539 = experiment: Growth inhibition of Homo sapiens (human) SF539 cells after 48 hr by SRB assay; assay type: functional; settings: SF-539, 48 h
SNB-75 [1] = experiment: Growth inhibition of Homo sapiens (human) SNB75 cells after 48 hr by SRB assay; assay type: functional; settings: SNB-75, 48 h
U-251 = experiment: Growth inhibition of Homo sapiens (human) U251 cells after 48 hr by SRB assay; assay type: functional; settings: U-251, 48 h
NCI/ADR-RES = experiment: Growth inhibition of Homo sapiens (human) NCI/ADR-RES cells after 48 hr by SRB assay; assay type: functional
MDA-MB-435 = experiment: Growth inhibition of Homo sapiens (human) MDA-MB-435 cells after 48 hr by SRB assay; assay type: functional; settings: MDA-MB-435, 48 h
HOP-92 [2] = experiment: Growth inhibition of Homo sapiens (human) HOP92 cells after 48 hr by SRB assay; assay type: functional; settings: HOP-92, 48 h
NCI-H322M = experiment: Growth inhibition of Homo sapiens (human) NCI-H322M cells after 48 hr by SRB assay; assay type: functional
NCI-H460 = experiment: Growth inhibition of Homo sapiens (human) NCI-H460 cells after 48 hr by SRB assay; assay type: functional; settings: NCI-H460, 48 h
K562 = experiment: Growth inhibition of Homo sapiens (human) K562 cells after 48 hr by SRB assay; assay type: functional; settings: K562, 48 h
SR = experiment: Growth inhibition of Homo sapiens (human) SR cells after 48 hr by SRB assay; assay type: functional
MOLT-4 = experiment: Growth inhibition of Homo sapiens (human) MOLT4 cells after 48 hr by SRB assay; assay type: functional; settings: MOLT-4, 48 h
NCI-H522 = experiment: Growth inhibition of Homo sapiens (human) NCI-H522 cells after 48 hr by SRB assay; assay type: functional; settings: NCI-H522, 48 h
RPMI-8226 = experiment: Growth inhibition of Homo sapiens (human) RPMI8226 cells after 48 hr by SRB assay; assay type: functional; settings: RPMI-8226, 48 h
CCRF-CEM = experiment: Growth inhibition of Homo sapiens (human) CCRF-CEM cells after 48 hr by SRB assay; assay type: functional
A549 = experiment: Growth inhibition of Homo sapiens (human) A549/ATCC cells after 48 hr by SRB assay; assay type: functional; settings: A549, 48 h
Cytochrome P450 1A1 = Cytochrome P450 1A1 (Homo sapiens, UniProt P04798); experiment: Inhibition of recombinant CYP1A1 (unknown origin) using 7-ethoxyresorufin as substrate by EROD assay
Cytochrome P450 1A1, sequence (P04798 whole entry): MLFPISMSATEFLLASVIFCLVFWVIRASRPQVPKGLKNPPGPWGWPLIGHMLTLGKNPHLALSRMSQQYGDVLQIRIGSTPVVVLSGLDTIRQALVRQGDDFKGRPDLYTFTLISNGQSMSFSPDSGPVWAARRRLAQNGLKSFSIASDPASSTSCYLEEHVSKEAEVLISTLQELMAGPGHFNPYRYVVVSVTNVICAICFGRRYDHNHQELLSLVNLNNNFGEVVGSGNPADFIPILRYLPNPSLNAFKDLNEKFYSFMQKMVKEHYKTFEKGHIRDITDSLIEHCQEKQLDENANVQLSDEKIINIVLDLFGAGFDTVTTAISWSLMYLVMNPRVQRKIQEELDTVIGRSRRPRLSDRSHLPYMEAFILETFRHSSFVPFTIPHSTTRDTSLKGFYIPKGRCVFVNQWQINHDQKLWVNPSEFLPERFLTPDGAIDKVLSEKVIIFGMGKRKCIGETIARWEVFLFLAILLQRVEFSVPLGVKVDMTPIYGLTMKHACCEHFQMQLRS

SNB-75 [3] = experiment: Growth inhibition of Homo sapiens (human) SNB75 cells at 1 uM after 48 hr by SRB assay; assay type: functional, cell-based
HOP-92 [4] = experiment: Growth inhibition of Homo sapiens (human) HOP92 cells at 1 uM after 48 hr by SRB assay; assay type: functional, cell-based

Row | SMILES | GI50 (EKVX) | GI50 (NCI-H226) | GI50 (HL-60(TB)) | GI50 (SF-268) | GI50 (BT-549) | GI50 (HOP-62) | GI50 (T47D) | GI50 (SNB-19) | GI50 (MCF7) | GI50 (NCI-H23) | GI50 (SF-295) | GI50 (Hs-578T; read-out: pGI50 (converted)) | GI50 (MDA-MB-231) | GI50 (SF-539) | GI50 (SNB-75 [1]; read-out: pGI50 (converted)) | GI50 (U-251) | GI50 (NCI/ADR-RES) | GI50 (MDA-MB-435) | GI50 (HOP-92 [2]; read-out: pGI50 (converted)) | GI50 (NCI-H322M) | also measured
1 | N#Cc1c(Nc2ccc(Cl)cc2)nc2sc3cc(Cl)ccc3n2c1=N | 10.2 µM | 2.4 µM | > 100 µM | 4.07 µM | 24.5 µM | 0.00457 µM | > 100 µM | > 100 µM | 1.82 µM | 0.646 µM | 3.02 µM | 1.45 µM | 7.24 µM | 8.71 µM | 5.01 µM | 6.61 µM | 4.68 µM | 6.17 µM | > 100 µM | 28.2 µM | GI50 (MDA-MB-468): 3.63 µM; GI50 (HOP-92 [2]; read-out: GI50): 1.82 µM; GI50 (NCI-H460): 21.9 µM; GI50 (K562): > 100 µM; GI50 (SR): 2.29 µM; GI50 (MOLT-4): 2.51 µM
2 | COc1ccc(Nc2nc3sc4cc(Cl)ccc4n3c(=N)c2C#N)cc1 | 1.91 µM | 1.91 µM | 34.7 µM | 4.37 µM | 4.07 µM | 3.39 µM | 29.5 µM | 40.7 µM | 2.51 µM | 1.55 µM | 1.7 µM | 0.407 µM | 2.04 µM | 30.9 µM | 3.39 µM | 4.07 µM | 2.82 µM | 3.09 µM | 20.9 µM | 3.31 µM | GI50 (MDA-MB-468): 3.55 µM; GI50 (NCI-H522): 33.1 µM; GI50 (RPMI-8226): 17 µM; GI50 (Hs-578T; read-out: GI50): 0.406 µM; GI50 (CCRF-CEM): 17.4 µM; GI50 (NCI-H460): 26.3 µM; GI50 (K562): 57.5 µM; GI50 (SR): 19.1 µM; GI50 (MOLT-4): 13.2 µM; GI50 (A549): 50.1 µM
3 | CSc1nc2sc3cc(Cl)ccc3n2c(=N)c1C#N | 9.77 µM | 38 µM | 1.35 µM | 21.4 µM | 23.4 µM | 38 µM | 28.2 µM | 40.7 µM | 3.89 µM | 26.9 µM | 2.19 µM | 4.9 µM | 74.1 µM | 26.9 µM | 12.3 µM | 30.2 µM | 17.8 µM | > 100 µM | 0.01 µM | > 100 µM | GI50 (NCI-H522): 60.3 µM; IC50 (Cytochrome P450 1A1): 2.5 µM; growth inhibition (GI) (SNB-75 [3]): Active; GI50 (RPMI-8226): 64.6 µM; GI50 (Hs-578T; read-out: GI50): 1.71 µM; GI50 (SNB-75 [1]; read-out: GI50): 0.416 µM; GI50 (CCRF-CEM): 3.55 µM; growth inhibition (GI) (HOP-92 [4]): Active; GI50 (HOP-92 [2]; read-out: GI50): 0.219 µM; GI50 (NCI-H460): 63.1 µM; GI50 (K562): 27.5 µM; GI50 (SR): 9.77 µM; GI50 (MOLT-4): 2.51 µM; GI50 (A549): 5.89 µM
